Experimental data: the METLIN SMRT retention time set (Domingo-Almenara et al. 2019)

Experiment: gradient 5% acetonitrile 3 min, to 50% in 2 min, to 85% in 15 min, held 3 min, 100 µL/min
Settings: column: Zorbax Extend-C18 2.1 x 50 mm; eluents: water / acetonitrile, 0.1% formic acid
Method in brief: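 Over 3 months, pure standards in mixtures of ~100 molecules were run by HPLC coupled to a quadrupole time-of-flight mass spectrometer in positive and negative ionization mode. The column was a Zorbax Extend-C18 (2.1 × 50 mm, 1.8 μm) at 100 μL/min, eluted with water and acetonitrile each holding 0.1% formic acid, with 40 μL dead and 900 μL dwell volumes. Retention time was determined from adduct peaks chosen by software and checked manually.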

| RP-LC retention time | SMILES |
| --- | --- |
| 917 s | Cc1sc2ccn(CC(C)C)c(=O)c2c1C(=O)N(C)Cc1ccccc1 |
| 728 s | O=C1C(=O)N(Cc2ccc(C(=O)N3CCCCCC3)cc2)CCN1Cc1ccc(F)cc1 |
| 574 s | COc1ccc(-c2c(C(=O)NCCN3CCN(C)CC3)nc3ccccn23)cc1 |
| 610 s | CCN1C(=O)CN(C(=O)c2ccco2)CC12CCOCC2 |
| 962 s | Cc1ccc2[nH]cc(CCNC(=O)Nc3ccc(Cl)cc3)c2c1 |
| 715 s | CCc1nnc(NC(=O)C2CC(=O)N(CCc3c[nH]c4ccc(Cl)cc34)C2)s1 (stereo not given) |
| 993 s | CCc1cc(=O)n(CC(=O)N2CCCc3ccccc32)c(-n2nc(C)cc2C)n1 |
| 797 s | O=C(c1cc2ccccc2[nH]1)N1CCN(C(=O)c2ccc(Br)o2)CC1 |
| 663 s | Cc1ccc(CNC(=O)CC2CCOCC2)o1 |
| 804 s | Cc1ccc(CNC(=O)C2(C)CN(S(C)(=O)=O)CC(=O)N2c2ccccc2F)cc1 (stereo not given) |
| 672 s | O=C(CC1CCN(S(=O)(=O)c2ccc(Cl)s2)CC1)N1CCN(c2ccccn2)CC1 |
| 992 s | CCn1c(=O)c2ccccc2n(Cc2nc(-c3cccc(OC)c3)no2)c1=O |
| 1200 s | CCc1ccc(NS(=O)(=O)c2c(C)sc(C)c2-c2n[nH]c(C)c2C)cc1 |
| 610 s | COc1ccc(Nc2nc(N)c3ccccc3n2)cc1 |
| 670 s | CCc1nc(C2CN(CCc3ccccc3)CC23CCCC3)no1 (stereo not given) |
| 746 s | CCC(C)C(NC(=O)c1ccc(F)cc1)C(=O)Nc1nc2ccccc2[nH]1 (stereo not given) |
| 682 s | Cc1ccc(Nc2c(-c3ccc(N4CCOCC4)cc3)nc3ccccn23)cc1 |
| 1020 s | COc1cc(OC)cc(N2C(=O)C3N=NN(Cc4nc(-c5ccc(Cl)cc5)no4)C3C2=O)c1 (stereo not given) |
| 756 s | CCc1nc(OCC(=O)N(C)c2ccccc2)c2ccccc2n1 |
| 1010 s | Cn1cc(-c2nc(C(=O)NCc3ccc(F)cc3Cl)cs2)c2cccnc21 |
| 637 s | O=S(=O)(c1cccnc1)N1CCC(OC2CCN(Cc3ccccc3)CC2)CC1 |
| 592 s | O=C(Cn1c(=O)c2cccn2c2ccccc21)NCCN1CCOCC1 |
| 625 s | N#Cc1cccc2sc(C(=O)N=C(N)N)cc12 |

| RP-LC retention time | SMILES |
| --- | --- |
| 590 s | O=C(COc1ccc2ccccc2c1)NCC1CCN(C2CCCC2)CC1 |
| 570 s | CN1CCN(C(=O)C2CCCN(c3ncnc4c3nc3n4CCCCC3)C2)CC1 (stereo not given) |
| 825 s | CCOc1ccc(S(=O)(=O)N2CCCC(C(=O)NC(C)C)C2)cc1 (stereo not given) |
| 904 s | COc1ccc(-c2nnc(-c3ccc(Cl)c(S(=O)(=O)N(C)C)c3)o2)cc1OC |
| 868 s | O=C(Cn1c(C(=O)NCc2ccc(F)cc2F)cccc1=O)NC1CCCC1 |
| 895 s | COc1ccc2c(c1)CCN(C(=O)c1csc(-n3cccc3)n1)C2 |
| 849 s | Cc1ccc(NC(=O)c2c(C)oc3nc(C)nc(N4CCOCC4)c23)c(C)c1 |
| 710 s | O=C(N[C@H]1C[C@@H]2C[C@H]1CN2C(=O)Cc1c(F)cccc1Cl)c1cccs1 |
| 808 s | O=C(Cn1nc2n(c(=O)c1=O)CCN2c1ccccc1)Nc1ccc(OC(F)(F)F)cc1 |
| 838 s | Cc1ccc(-c2nc3ncccn3c2NC(=O)c2cccc(C(F)(F)F)c2)cc1 |
| 552 s | Cc1noc(C)c1CCC(=O)N1CC(c2nc3ccccc3[nH]2)C1 |
| 769 s | CC1=C(c2ccccc2)S(=O)(=O)N=C1N1CCCN(S(=O)(=O)c2cccnc2)CC1 |
| 870 s | Cc1c(S(=O)(=O)N2CCC(Cc3ccccc3)CC2)c(=O)n(C)c(=O)n1C |
| 772 s | CCCn1c(-c2cccc(C(=O)NC3CCCC3)c2)nc2cccnc21 |
| 801 s | CC(=O)c1cccc(NC(=O)N2CCc3c(c(COc4ccc(F)cc4)nn3C)C2)c1 |
| 1010 s | Cc1ccc(NC(=O)N2CCCC2c2nc(-c3cccc(F)c3)no2)cc1 (stereo not given) |
| 739 s | Cc1cc(C)cc(NC(=O)Cc2c(C(=O)O)c(C)cn2C)c1 |
| 1000 s | O=C(CC1CCN(S(=O)(=O)c2ccc(Cl)s2)CC1)N1CCCCCC1 |
| 1110 s | COc1ccc(-c2noc(C3(NC(=O)c4cccc(C#N)c4)CCCCC3)n2)cc1 |
| 901 s | COc1ccc(C(=O)N2CCC3(CC2)N=C(c2cccc(Br)c2)NO3)cc1F |
| 758 s | CCNC(=O)c1ccc(-n2nc(C)c(C)c2C)nc1 |
| 777 s | N#Cc1c(N)nc(N)nc1Nc1ccc(Br)cc1 |
| 819 s | Cc1cc2c(=O)n(CC(=O)Nc3cccc(Cl)c3C)ccc2s1 |

| RP-LC retention time | SMILES |
| --- | --- |
| 1160 s | Cc1ccc(-c2nnc(-c3nn(C)c4c3CN(S(=O)(=O)c3c(C)cc(C)cc3C)CC4)o2)cc1 |
| 806 s | CCNC(=O)c1cc2cc(Cl)ccc2[nH]1 |
| 654 s | Cc1cnn(CCC(=O)NC2CCN(c3ccc(=O)n(CC4CC4)n3)C2)c1 (stereo not given) |
| 708 s | Cc1ccccc1-n1ncc2c(NCc3ccco3)ncnc21 |
| 712 s | Cc1ccccc1C(=O)Nc1ccc(C(=O)N2CCCC(N(C)C)c3ccccc32)cc1 (stereo not given) |
| 639 s | CN(C)CC1(O)CCC2(CCN(C(=O)CCC3CCCC3)CC2)CC1 |
| 731 s | CN(CC1(C)CCOCC1)C(=O)NCc1cccc(F)c1 |
| 631 s | Cc1ccc(CNC(=O)CCNc2c(-c3ccccc3C)nc3cnccn23)o1 |
| 897 s | O=C(Cn1cccc1-c1nnc(-c2ccccc2)o1)Nc1ccc2c(c1)OCCO2 |
| 610 s | CN(C)c1ccc(CNC(=O)c2cc3n(n2)CC(C)(C(=O)NCc2ccc(F)cc2)N(C)C3=O)cc1 (stereo not given) |
| 898 s | CCOCCCNC(=O)Cn1nc(C)c2nn(-c3ccc(Cl)cc3)c(-n3cccc3)c2c1=O |
| 843 s | Cc1cc(C)n(-c2ccnc(N3CCC(C(=O)NCCc4cccs4)CC3)n2)n1 |
| 615 s | CCN(Cc1ccc(Cl)cc1)Cc1cc(=O)n2ccccc2n1 |
| 710 s | COCCn1cc(C(=O)Nc2ccc(N(C)C)cc2)c2nn(-c3ccccc3)c(=O)c-2c1 |
| 620 s | Cc1cc(C)c(NC(=O)Cn2ncc3c(N4CCN(c5ccccn5)CC4)ncnc32)c(C)c1 |
| 858 s | CCc1ccc(CNC(=O)c2cc3n(n2)CC(C)(C(=O)NCc2ccc(F)cc2)N(C)C3=O)cc1 (stereo not given) |
| 822 s | N#Cc1cccc(-c2cn3c(n2)N(C(=O)Cc2ccsc2)CCC3)c1 |
| 654 s | COc1cccc(C(O)CN2CCN(c3ccccc3F)CC2)c1 (stereo not given) |
| 582 s | Cc1ccc(NC(=O)N2CCc3[nH]cnc3C2c2ccncc2)cc1C (stereo not given) |
| 899 s | Cc1ccccc1CNC(=O)C1(C)CCCN(C(=O)Nc2ccc(F)cc2)C1 (stereo not given) |
| 749 s | CCOC(=O)/C=C/c1ccc(O)c(OC)c1 |
| 624 s | Cc1nnc2cc(N3CCN(C(=O)Nc4cccc(F)c4)CC3)cnn12 |
| 1310 s | Cc1ccc(C)c(NS(=O)(=O)c2cc(-c3nc(C(C)(C)C)cs3)cs2)c1 |

| RP-LC retention time | SMILES |
| --- | --- |
| 694 s | O=C(NCCc1ccccc1)Nc1cccc(-c2nnc3n2CCCC3)c1 |
| 835 s | Cc1ccc(N(C)S(=O)(=O)c2cc(-c3[nH]ncc3C(=O)N3CCCCC3)oc2C)cc1 |
| 963 s | O=C1NC2(CCN(C(=O)NCc3ccccc3)CC2)Oc2ccccc21 |
| 791 s | O=C(NCc1cccs1)c1ccc2c(c1)OCCCO2 |
| 864 s | COc1ccc2c(c1)CCC1C2CC[C@@]2(C)C1CC[C@@H]2NCCCCCCN1C(=O)CCC1=O (stereo not given in full) |
| 752 s | Nc1ccc(C(=O)Nc2cccc(N)c2)cc1 |
| 814 s | O=C(NCC(O)c1cccc2ccccc12)c1ccccc1C(F)(F)F (stereo not given) |
| 894 s | COc1ccc(C2C(=O)N(C3CCCCC3)CC(=O)N2Cc2ccc3c(c2)OCO3)cc1OC (stereo not given) |
| 955 s | COc1cc(-c2noc(CCn3nc(-c4ccccc4)ccc3=O)n2)cc(OC)c1OC |
| 835 s | CCc1ccc2nc(Nc3ncc4c(n3)CC(c3ccc(F)cc3)CC4=O)nc(C)c2c1 (stereo not given) |
| 776 s | Cc1ccc(-c2cnn3c(N4CCN(c5cccc(C)n5)CC4)cc(C)nc23)cc1 |
| 690 s | CCc1nc2cc(-c3noc(C4(c5ccc(OC)cc5)CC4)n3)ccc2o1 |
| 954 s | COc1ccc(C2CC(=O)N(c3ccc(C)c(F)c3)C(=O)C2)cc1 |
| 944 s | CS(=O)(=O)N1CCC(C(=O)Nc2ccc(F)cc2F)Oc2ccc(Cl)cc21 (stereo not given) |
| 616 s | Cc1ccc(F)cc1S(=O)(=O)N1CCN(c2cnn3c(C)nnc3c2)CC1 |
| 869 s | O=C(Cc1csc(NC(=O)c2ccccc2)n1)Nc1ccc(F)c(Cl)c1 |
| 1090 s | CCOc1ccc(N2CC(c3nc(-c4ccc(C)cc4)no3)CC2=O)cc1 (stereo not given) |
| 886 s | Cc1nn(-c2ccccc2)c(C)c1S(=O)(=O)N1CCC(C(=O)NCc2ccccc2)CC1 |
| 780 s | CCOC(=O)C1CCN(C(=O)Cn2c(=O)c3nnc(C)n3c3ncccc32)CC1 |
| 951 s | COc1ccc(N2CC(c3nc(-c4cccc(Cl)c4)no3)CC2=O)cc1OC (stereo not given) |

| SMILES | RP-LC retention time |
| --- | --- |
| Cc1cccc(Cc2cnc[nH]2)c1C | 667 s |
